ChEMBL document CHEMBL1944599, “From libraries to candidate: the discovery of new ultra long-acting dibasic β₂-adrenoceptor agonists” (Bioorg Med Chem Lett, 2012)
pEC50, pIC50: −log10 of the molar value. The source made the active and inactive calls. No cut-off for these calls is given here.

Key:
[1] = target: T1, Beta-1 adrenergic receptor (Homo sapiens, UniProt P08588); assay: Displacement of radiolabeled iodocyanopindolol from beta1 adrenoceptor
[2] = target: T2, Beta-2 adrenergic receptor (Homo sapiens, UniProt P07550); assay: Agonist activity at human beta2 adrenoceptor expressed in H292 cells assessed as increase in cAMP accumulation after 60 mins by spectrophotometry; format: functional, cell-based
T2 sequence (P07550 whole entry): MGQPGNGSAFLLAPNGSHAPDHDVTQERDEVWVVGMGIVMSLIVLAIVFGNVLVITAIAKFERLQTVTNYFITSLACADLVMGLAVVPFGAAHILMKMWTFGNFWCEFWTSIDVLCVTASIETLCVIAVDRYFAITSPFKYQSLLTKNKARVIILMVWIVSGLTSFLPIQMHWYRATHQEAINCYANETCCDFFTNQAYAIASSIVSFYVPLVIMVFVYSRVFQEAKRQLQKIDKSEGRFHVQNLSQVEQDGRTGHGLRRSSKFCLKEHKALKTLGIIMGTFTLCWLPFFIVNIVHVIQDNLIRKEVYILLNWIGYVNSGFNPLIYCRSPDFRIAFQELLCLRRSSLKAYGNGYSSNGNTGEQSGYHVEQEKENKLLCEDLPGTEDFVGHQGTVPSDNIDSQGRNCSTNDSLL

D(2) dopamine receptor [3] = target: T3, D(2) dopamine receptor (Homo sapiens, UniProt P14416); assay: Displacement of radiolabeled spiperone from dopamine D2 receptor
T3 sequence (P14416 whole entry): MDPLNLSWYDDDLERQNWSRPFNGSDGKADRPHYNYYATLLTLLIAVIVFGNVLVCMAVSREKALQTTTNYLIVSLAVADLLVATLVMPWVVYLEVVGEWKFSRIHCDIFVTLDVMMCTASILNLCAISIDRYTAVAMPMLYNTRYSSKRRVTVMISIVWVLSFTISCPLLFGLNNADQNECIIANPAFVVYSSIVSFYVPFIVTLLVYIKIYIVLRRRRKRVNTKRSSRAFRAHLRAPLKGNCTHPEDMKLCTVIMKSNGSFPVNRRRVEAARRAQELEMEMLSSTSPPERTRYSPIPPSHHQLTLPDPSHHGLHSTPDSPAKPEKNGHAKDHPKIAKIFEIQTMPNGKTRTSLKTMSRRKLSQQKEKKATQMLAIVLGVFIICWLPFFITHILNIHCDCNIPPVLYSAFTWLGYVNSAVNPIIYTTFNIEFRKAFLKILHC

[4] = target: T2, Beta-2 adrenergic receptor; assay: Displacement of radiolabeled iodocyanopindolol from recombinant beta2 adrenoceptor
[5] = target: T4, Alpha-1D adrenergic receptor (Homo sapiens, UniProt P25100); assay: Displacement of radiolabeled Prazosin from alpha1D adrenoceptor
T4 sequence (P25100 whole entry): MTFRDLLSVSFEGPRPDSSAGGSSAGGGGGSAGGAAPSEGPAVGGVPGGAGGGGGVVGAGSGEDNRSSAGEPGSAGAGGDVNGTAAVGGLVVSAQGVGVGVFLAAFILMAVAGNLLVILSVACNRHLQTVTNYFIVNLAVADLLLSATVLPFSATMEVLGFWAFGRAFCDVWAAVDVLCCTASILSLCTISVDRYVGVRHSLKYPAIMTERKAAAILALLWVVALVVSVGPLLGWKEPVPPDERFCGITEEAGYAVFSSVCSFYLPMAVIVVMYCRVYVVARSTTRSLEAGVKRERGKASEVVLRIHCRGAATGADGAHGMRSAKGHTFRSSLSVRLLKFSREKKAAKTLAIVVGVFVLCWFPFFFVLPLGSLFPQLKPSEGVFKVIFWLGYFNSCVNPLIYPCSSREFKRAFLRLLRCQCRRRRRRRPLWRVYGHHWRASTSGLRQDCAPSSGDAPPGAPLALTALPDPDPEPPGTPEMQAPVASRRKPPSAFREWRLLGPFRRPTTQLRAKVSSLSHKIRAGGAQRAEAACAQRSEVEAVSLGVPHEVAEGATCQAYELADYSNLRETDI

physchem = details: 1-octanol/aqueous buffer, pH 7.4
[6] = target: Beta-2 adrenergic receptor (Cavia porcellus) (UniProt Q8K4Z4); assay: Agonist activity at beta2 adrenoceptor in guinea pig trachea assessed as reduction in methacholine-induced contraction relative to untreated control; format: functional, tissue-based
Chain of Beta-2 adrenergic receptor (Cavia porcellus) (Q8K4Z4 whole entry, looked up): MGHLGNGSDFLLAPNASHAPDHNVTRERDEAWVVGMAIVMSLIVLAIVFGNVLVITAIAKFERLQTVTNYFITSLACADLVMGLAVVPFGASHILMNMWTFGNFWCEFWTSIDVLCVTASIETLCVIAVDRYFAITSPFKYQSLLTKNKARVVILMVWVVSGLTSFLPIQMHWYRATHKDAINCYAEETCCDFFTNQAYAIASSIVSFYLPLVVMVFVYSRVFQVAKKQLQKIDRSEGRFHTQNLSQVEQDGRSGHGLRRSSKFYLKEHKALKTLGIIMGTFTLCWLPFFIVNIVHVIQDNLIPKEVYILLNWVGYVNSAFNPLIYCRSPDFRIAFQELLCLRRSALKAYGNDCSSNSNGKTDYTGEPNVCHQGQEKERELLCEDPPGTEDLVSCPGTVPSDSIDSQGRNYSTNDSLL

[7] = target: Beta-2 adrenergic receptor (Cavia porcellus, UniProt Q8K4Z4); assay: Agonist activity at beta2 adrenoceptor in guinea pig trachea assessed as reduction in methacholine-induced contraction; format: functional, tissue-based
Chain of Beta-2 adrenergic receptor (Cavia porcellus, UniProt Q8K4Z4) (Q8K4Z4 whole entry): as the sequence (Q8K4Z4 whole entry, looked up) above

in vivo = details: rat, iv
Description: Terminal half life in iv dosed rat

[8] = Apparent volume of distribution during terminal phase in iv dosed rat; format: ADME, organism-based; details: in vivo, read-out: Vz
[9] = Clearance in iv dosed rat; details: in vivo
Cavia porcellus [10] = assay: Bronchoprotective activity in it dosed guinea pig assessed as inhibition of histamine-induced constriction
[11] = Half life in it dosed dog; format: ADME, organism-based, Canis lupus familiaris; details: in vivo, inhaled or intranasal
[12] = target: T4, Alpha-1D adrenergic receptor; assay: […] to Alpha-1D adrenoceptor expressed in HEK cells by calcium flux assay; format: cell-based, HEK293
[13] = Oral bioavailability in rat; format: ADME, organism-based; details: in vivo
[14] = Oral bioavailability in dog; format: ADME, organism-based, Canis lupus familiaris; details: in vivo
D(2) dopamine receptor [15] = target: T3, D(2) dopamine receptor; assay: […] to dopamine D2 receptor expressed in HEK cells by GTPgammaS binding assay; format: cell-based, HEK293
[16] = target: T5, Voltage-gated inwardly rectifying potassium channel KCNH2 (Homo sapiens, UniProt Q12809); assay: Inhibition of human ERG by patch clamp assay
T5 sequence (Q12809 whole entry): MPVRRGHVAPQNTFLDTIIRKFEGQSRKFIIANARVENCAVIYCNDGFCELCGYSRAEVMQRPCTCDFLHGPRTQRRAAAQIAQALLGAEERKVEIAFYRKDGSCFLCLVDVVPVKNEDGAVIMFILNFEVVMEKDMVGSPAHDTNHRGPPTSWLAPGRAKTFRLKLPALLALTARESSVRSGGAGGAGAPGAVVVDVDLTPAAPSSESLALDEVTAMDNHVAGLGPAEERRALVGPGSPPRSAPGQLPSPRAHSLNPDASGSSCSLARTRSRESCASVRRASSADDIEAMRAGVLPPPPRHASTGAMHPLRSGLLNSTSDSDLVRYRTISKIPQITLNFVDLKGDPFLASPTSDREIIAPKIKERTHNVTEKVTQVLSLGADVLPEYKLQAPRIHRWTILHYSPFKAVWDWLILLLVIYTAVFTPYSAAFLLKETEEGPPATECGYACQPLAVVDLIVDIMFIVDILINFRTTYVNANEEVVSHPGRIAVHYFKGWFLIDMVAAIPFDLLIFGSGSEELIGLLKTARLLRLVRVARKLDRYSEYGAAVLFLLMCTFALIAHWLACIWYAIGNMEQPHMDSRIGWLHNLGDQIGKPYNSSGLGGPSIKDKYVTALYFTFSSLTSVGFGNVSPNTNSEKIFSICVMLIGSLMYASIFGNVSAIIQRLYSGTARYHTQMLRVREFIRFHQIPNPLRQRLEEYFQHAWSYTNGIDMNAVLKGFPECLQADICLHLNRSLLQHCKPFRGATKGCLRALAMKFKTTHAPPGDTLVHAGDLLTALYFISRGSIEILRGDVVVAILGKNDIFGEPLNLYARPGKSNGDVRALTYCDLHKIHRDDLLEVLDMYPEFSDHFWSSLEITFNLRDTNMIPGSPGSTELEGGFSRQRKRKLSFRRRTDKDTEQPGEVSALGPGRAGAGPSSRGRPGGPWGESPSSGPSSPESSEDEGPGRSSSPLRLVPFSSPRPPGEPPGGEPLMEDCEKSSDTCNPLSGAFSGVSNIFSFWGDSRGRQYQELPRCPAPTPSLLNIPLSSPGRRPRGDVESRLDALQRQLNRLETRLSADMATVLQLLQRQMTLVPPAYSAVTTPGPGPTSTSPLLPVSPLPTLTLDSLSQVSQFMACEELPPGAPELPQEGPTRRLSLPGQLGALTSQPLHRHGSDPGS

[17] = Inhibition of cytochrome P450; format: ADME
Cavia porcellus [18] = assay: Bronchoprotective activity in histamine-induced bronchoconstriction guinea pig model at 7 ug/kg, it after 24 hrs; format: functional
[19] = target: T1, Beta-1 adrenergic receptor; assay: Binding affinity to beta1 adrenoceptor
Hepatocyte = details: rat, hepatocytes
Description: Drug metabolism in rat hepatocytes

Cavia porcellus [20] = assay: Bronchoprotective activity in histamine-induced bronchoconstriction guinea pig model at 7 ug/kg, it co-administered with beta2 adrenoceptor antagonist propranolol; format: functional, organism-based
[21] = target: T6, Alpha-1D adrenergic receptor (Homo sapiens) (UniProt P25100); assay: […] to Alpha-1D adrenoceptor expressed in HEK cells by calcium flux assay relative to control; format: cell-based; details: HEK293
T6 sequence (whole entry): T4 sequence (P25100 whole entry)

D(2) dopamine receptor [22] = target: T3, D(2) dopamine receptor; assay: […] to dopamine D2 receptor expressed in HEK cells by GTPgammaS binding assay relative to control; format: cell-based; details: HEK293
Cytochrome P450 3A4 = Cytochrome P450 3A4 (Homo sapiens, UniProt P08684); assay: Inhibition of CYP3A4; format: ADME
Chain of Cytochrome P450 3A4 (P08684 whole entry): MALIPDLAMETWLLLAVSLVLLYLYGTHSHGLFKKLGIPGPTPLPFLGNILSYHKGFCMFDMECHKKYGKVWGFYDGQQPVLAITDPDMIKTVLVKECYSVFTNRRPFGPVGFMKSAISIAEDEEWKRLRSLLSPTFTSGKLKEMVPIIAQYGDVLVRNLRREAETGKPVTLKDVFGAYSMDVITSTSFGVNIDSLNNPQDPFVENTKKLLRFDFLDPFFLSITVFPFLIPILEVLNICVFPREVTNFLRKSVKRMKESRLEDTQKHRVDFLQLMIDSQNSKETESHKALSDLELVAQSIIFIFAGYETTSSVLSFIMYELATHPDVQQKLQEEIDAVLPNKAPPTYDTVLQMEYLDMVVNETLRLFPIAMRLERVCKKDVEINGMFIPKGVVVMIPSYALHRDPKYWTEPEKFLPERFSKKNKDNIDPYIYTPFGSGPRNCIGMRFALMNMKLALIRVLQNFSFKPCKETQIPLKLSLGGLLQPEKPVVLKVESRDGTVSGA

[23] = target: T5, Voltage-gated inwardly rectifying potassium channel KCNH2; assay: Inhibition of human ERG
Cytochrome P450 2D6 = Cytochrome P450 2D6 (Homo sapiens, UniProt P10635); assay: Inhibition of CYP2D6; format: ADME
Chain of Cytochrome P450 2D6 (P10635 whole entry): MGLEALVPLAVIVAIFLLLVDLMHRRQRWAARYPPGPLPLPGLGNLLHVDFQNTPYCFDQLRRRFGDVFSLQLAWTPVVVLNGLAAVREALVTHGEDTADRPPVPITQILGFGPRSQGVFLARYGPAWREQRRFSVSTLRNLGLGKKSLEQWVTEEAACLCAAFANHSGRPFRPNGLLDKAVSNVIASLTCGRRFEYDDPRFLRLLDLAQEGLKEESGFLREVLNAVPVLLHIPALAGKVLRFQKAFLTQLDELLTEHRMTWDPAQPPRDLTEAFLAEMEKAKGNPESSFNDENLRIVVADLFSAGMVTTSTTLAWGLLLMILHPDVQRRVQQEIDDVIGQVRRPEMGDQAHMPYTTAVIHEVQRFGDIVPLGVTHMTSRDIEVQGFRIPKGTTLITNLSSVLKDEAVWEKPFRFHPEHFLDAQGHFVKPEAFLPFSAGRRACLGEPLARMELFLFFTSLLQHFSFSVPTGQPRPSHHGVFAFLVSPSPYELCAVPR

T1 sequence (P08588 whole entry): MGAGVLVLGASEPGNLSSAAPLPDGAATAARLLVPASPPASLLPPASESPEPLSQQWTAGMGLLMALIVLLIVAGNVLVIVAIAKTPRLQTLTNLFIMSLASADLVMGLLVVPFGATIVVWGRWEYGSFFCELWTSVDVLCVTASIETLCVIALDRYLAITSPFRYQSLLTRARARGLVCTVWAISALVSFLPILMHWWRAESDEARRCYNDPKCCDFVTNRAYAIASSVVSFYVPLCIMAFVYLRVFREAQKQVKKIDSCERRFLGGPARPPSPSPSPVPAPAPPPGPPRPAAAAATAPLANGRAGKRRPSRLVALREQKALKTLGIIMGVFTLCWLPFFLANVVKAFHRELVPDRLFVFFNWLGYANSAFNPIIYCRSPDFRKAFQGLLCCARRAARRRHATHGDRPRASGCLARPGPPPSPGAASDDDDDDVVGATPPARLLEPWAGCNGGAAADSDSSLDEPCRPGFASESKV

| SMILES | pIC50 [1] | pEC50 [2] | pIC50 (D(2) dopamine receptor [3]) | pIC50 [4] | pIC50 [5] | logD (physchem) | further results |
| --- | --- | --- | --- | --- | --- | --- | --- |
| COc1ccccc1CNCc1ccc(CCNC[C@H](O)c2ccc(O)c3[nH]c(=O)sc23)cc1 | 5.90 | 8.50 | 5.60 | 6.90 | 7.00 | 0.2 |  |
| COCCNCc1cccc(CCNC[C@H](O)c2ccc(O)c3[nH]c(=O)sc23)c1 | 6.80 |  | 6.10 | 7.60 | 6.30 | 0 | Intrinsic activity [6]: 0.8; pEC50 [7]: 8.50; half-life (in vivo): 18 h; Vd [8]: 28 L/kg; clearance [9]: 18 mL/min/kg |
| O=c1[nH]c2c(O)ccc([C@@H](O)CNCCc3ccccc3CNCCc3ccccc3F)c2s1 | 8.70 | 8.80 | 6.10 | 7.90 | 6.70 | 1.6 |  |
| COc1ccccc1CNCc1cccc(CCNC[C@H](O)c2ccc(O)c3[nH]c(=O)sc23)c1.Cl |  |  |  |  |  |  | ED80 (Cavia porcellus [10]): 7 µg/kg |
| COc1cccc(CNCc2cccc(CCNC[C@H](O)c3ccc(O)c4[nH]c(=O)sc34)c2)c1 | 7.20 | 9.00 | 6.10 | 8.20 | 7.00 | 0.9 |  |
| COc1ccccc1CNCc1cccc(CCNC[C@H](O)c2ccc(O)c3[nH]c(=O)sc23)c1 [listing 1 of 2 here] | 7.30 |  | 6.00 |  | 6.70 | 1.1 | pEC50 [7]: 9.30; half-life (in vivo): 14 h; half-life [11]: 48 h; pEC50 [12]: 6.90; bioavailability [13]: < 2%; bioavailability [14]: < 2%; Vd [8]: 22 L/kg; pEC50 (D(2) dopamine receptor [15]): 6.60; Activity [16]: > 10 µM; Activity [17]: > 10 µM; Activity (Cavia porcellus [18]): 64%; clearance [9]: 20 mL/min/kg |
| O=c1[nH]c2c(O)ccc([C@@H](O)CNCCc3cccc(CNCCc4ccccc4Cl)c3)c2s1 | 6.80 | 9.60 | 6.20 | 9.20 | 7.30 | 1.6 |  |
| O=c1[nH]c2c(O)ccc([C@@H](O)CNCCc3ccc(CNCCc4ccccc4F)cc3)c2s1 | 6.40 | 9.40 | 5.70 | 8.70 | 7.30 | 1.3 |  |
| Cc1cccc2c(CCNCc3cccc(CCNC[C@H](O)c4ccc(O)c5[nH]c(=O)sc45)c3)c[nH]c12 | 7.10 | 9.50 | 6.40 | 9.20 | 6.40 | 1.1 |  |
| O=c1[nH]c2c(O)ccc([C@@H](O)CNCCc3cccc(CNCCc4ccccc4F)c3)c2s1 | 7.20 | 9.80 | 6.40 | 9.30 | 6.90 | 1.1 | Intrinsic activity [6]: 0.9; pEC50 [7]: 9.60; half-life (in vivo): 16 h; Vd [8]: 8.2 L/kg; clearance [9]: 6 mL/min/kg |
| Cc1cccc2c(CCNCc3ccc(CCNC[C@H](O)c4ccc(O)c5[nH]c(=O)sc45)cc3)c[nH]c12 | 6.50 | 9.60 | < 6.10 | 8.70 | 7.00 |  | Intrinsic activity [6]: 0.8; pEC50 [7]: 9.70; half-life (in vivo): 18 h; Vd [8]: 29 L/kg; clearance [9]: 18 mL/min/kg |
| COc1ccc(CNCc2cccc(CCNC[C@H](O)c3ccc(O)c4[nH]c(=O)sc34)c2)cc1 | 8.00 | 9.10 | 6.10 | 8.30 | 6.80 | 0.9 |  |
| O=c1[nH]c2c(O)ccc(CCNCCS(=O)(=O)CCCOCCc3ccccc3)c2s1 [SIBENADET] |  |  |  |  |  |  | pIC50 [19]: < 5.00; Drug metabolism (Hepatocyte): > 117% |
| COc1ccccc1CCNCc1cccc(CCNC[C@H](O)c2ccc(O)c3[nH]c(=O)sc23)c1 | 6.60 | 9.50 | < 6.10 | 9.10 | 7.10 | 0.8 |  |
| COc1ccccc1CN(C)Cc1cccc(CCNC[C@H](O)c2ccc(O)c3[nH]c(=O)sc23)c1 | 6.70 | 8.50 | 6.00 | 7.60 | 6.60 | 1.5 |  |
| CCc1cc2c(cc1CC)CC(NC[C@H](O)c1ccc(O)c3[nH]c(=O)ccc13)C2 [INDACATEROL] |  |  |  |  |  |  | half-life (in vivo): 7.6 h; ED80 (Cavia porcellus [10]): 14 µg/kg; pIC50 [19]: […]; Drug metabolism (Hepatocyte): 51% |
| COc1ccccc1CNCc1cccc(CCNC[C@H](O)c2ccc(O)c3[nH]c(=O)sc23)c1 [listing 2 of 2 here] |  |  |  |  |  |  | Activity (Cavia porcellus [20]): inactive; Intrinsic activity [21]: 0.3; Intrinsic activity [6]: 0.9; Intrinsic activity (D(2) dopamine receptor [22]): 0.4 |
| O=c1[nH]c2c(O)ccc([C@@H](O)CNCCc3ccc(CNCCc4c(Cl)cccc4Cl)cc3)c2s1 | 6.40 | 9.50 | 6.00 | 8.40 | 7.10 | 2.3 | inhibition (INH) (Cytochrome P450 3A4): Active; inhibition (INH) [23]: Active; inhibition (INH) (Cytochrome P450 2D6): Active |
| O=c1[nH]c2c(O)ccc([C@@H](O)CNCCc3cccc(CNCc4ccccc4F)c3)c2s1 | 8.20 | 9.20 | 6.20 | 9.00 | 7.10 | 0.7 |  |
| O=c1[nH]c2c(O)ccc([C@@H](O)CNCCc3cccc(CNCCCc4ccccc4)c3)c2s1 | 7.70 | 9.30 | 6.50 | 9.10 | 6.80 | 1.1 |  |
| COCCNCc1ccc(CCNC[C@H](O)c2ccc(O)c3[nH]c(=O)sc23)cc1 | 6.10 | 7.80 | < 5.00 | 6.50 | 6.20 | -0.5 |  |
| O=c1[nH]c2c(O)ccc([C@@H](O)CNCCc3cccc(CNCCc4c(Cl)cccc4Cl)c3)c2s1 | 7.90 |  | 6.60 |  | 7.20 | 3.2 | inhibition (INH) (Cytochrome P450 3A4): Active; inhibition (INH) [23]: Active; inhibition (INH) (Cytochrome P450 2D6): Active |
| OCc1cc(C(O)CNCCCCCCOCCCCc2ccccc2)ccc1O (configuration not stated) [SALMETEROL] |  |  |  |  |  |  | ED80 (Cavia porcellus [10]): 1 µg/kg; Drug metabolism (Hepatocyte): 85% |
| CC(CNCc1ccc(CCNC[C@H](O)c2ccc(O)c3[nH]c(=O)sc23)cc1)c1ccccc1 (some centres not stated) | 6.30 | 9.40 | 5.60 | 9.70 | 7.50 | 1.2 |  |
| O=c1[nH]c2c(O)ccc([C@@H](O)CNCCc3cccc(CNCCc4ccccn4)c3)c2s1 | 6.80 | 9.30 | 5.80 | 8.60 | 6.70 |  | Intrinsic activity [6]: 0.9; pEC50 [7]: 9.50; Vd [8]: 41 L/kg |
| O=c1[nH]c2c(O)ccc([C@@H](O)CNCCOc3cccc(CNCCc4ccccc4F)c3)c2s1 | 6.70 | 8.60 | 6.40 | 8.10 | 7.60 | 1.9 |  |
| O=c1[nH]c2c(O)ccc([C@@H](O)CNCCc3cccc(CNCc4ccccc4Cl)c3)c2s1 | 8.00 |  | 6.60 |  | 6.80 | 1.9 |  |
| O=c1[nH]c2c(O)ccc(CCNCCc3cccc(-c4cccc(CNCc5ccccc5)c4)c3)c2s1 |  |  |  | 7.50 |  | 0.8 | Intrinsic activity [6]: 0.9; pEC50 [7]: 9.30; half-life (in vivo): 14 h; Vd [8]: 29 L/kg; clearance [9]: 23 mL/min/kg |
| O=c1[nH]c2c(O)ccc([C@@H](O)CNCCc3ccc(CNCCc4ccccc4)cc3)c2s1 | 6.40 | 9.60 | 5.70 | 8.70 | 7.90 | 1.1 |  |
| C[C@@H](NCc1ccccc1-c1ccc(CCNCCc2ccc(O)c3[nH]c(=O)sc23)cc1)c1ccccc1 |  |  |  | 9.10 |  | -0.3 | Intrinsic activity [6]: 0.9; pEC50 [7]: 9.60; half-life (in vivo): 15 h; Vd [8]: 22 L/kg; clearance [9]: 19 mL/min/kg |
